Counter-ions that a name gives are not always drawn.

Data on 33 compounds can be found in article PMC11637378, “Optogenetic screening of MCT1 activity implicates a cluster of non-steroidal anti-inflammatory drugs (NSAIDs) as inhibitors of lactate transport” (PLOS ONE, 2024).

In the first data set the test system is parent strain (SAWy518).
Assay: not given
Details: not given
For `N#Cc1c(O)c2c(-c3ccc(-c4ccccc4O)cc3)csc2[nH]c1=O` [A-769662], the OffScreen_percentage was 102.02 percentage, the Offscreen_18hr is recorded as 0.8233, the Offscreen_24hr came out at 0.9004 and the Offscreen_42hr turned out to be 0.9609. The Read_percentage turned out to be 102.02 percentage.
Take `CCOC(=O)[C@H](C)C[C@@H](Cc1ccc(-c2ccccc2)cc1)NC(=O)CCC(=O)O` [AHU377]: the OffScreen_percentage turned out to be 104.585 percentage, the Offscreen_18hr came out at 0.844, the Offscreen_24hr was 0.9243 and the Offscreen_42hr came to 0.9874. In addition, the Read_percentage is given as 104.585 percentage.
On to `COc1ccc([C@@H](C)C(=O)c2ccc(O)cc2O)cc1` [Angolesin], for which the OffScreen_percentage turned out to be 95.7373 percentage, the Offscreen_18hr amounted to 0.7726, the Offscreen_24hr is on record as 0.8843 and the Offscreen_42hr came to 0.9388. In addition, the Read_percentage is reported as 95.7373 percentage.
For the compound `O=c1cc(-c2ccc(O)cc2)oc2cc(O)cc(O)c12` [Apigenin], the OffScreen_percentage stood at 96.0843 percentage, the Offscreen_18hr is listed as 0.7754, the Offscreen_24hr was determined as 0.8699 and the Offscreen_42hr amounted to 0.9646. Also, the Read_percentage was determined as 96.0843 percentage.
For the compound `C=CC[C@@H]1/C=C(\C)C[C@H](C)C[C@H](OC)[C@H]2O[C@@](O)(C(=O)C(=O)N3CCCC[C@H]3C(=O)O[C@H](/C(C)=C/[C@@H]3CC[C@@H](O)[C@H](OC)C3)[C@H](C)[C@@H](O)CC1=O)[C@H](C)C[C@@H]2OC` [TACROLIMUS], the Offscreen_18hr was found to be 0.727, the Offscreen_24hr is 0.8973 and the Offscreen_42hr came out at 0.9661.
For the compound `O=C1NC(=O)/C(=C\c2cccc(C(F)(F)F)c2)S1` [TCS PIM-1 4a], the Offscreen_18hr is on record as 0.5379, the Offscreen_24hr is on record as 0.7077 and the Offscreen_42hr came out at 0.7912.
On to `O=C(O)Cc1cc(I)c(Oc2ccc(O)c(I)c2)c(I)c1` [TIRATRICOL], for which the Offscreen_18hr was 0.6885, the Offscreen_24hr was 0.8174 and the Offscreen_42hr is reported as 0.855.
On to `CCCCCCC(=O)OC1CC(C)(C)NC(C)(C)C1.Cl` [TMPH hydrochloride, reference compound], for which the Offtarget result is given as “NO” and the Offtarget_sub was determined as 0.4142.
In the case of `CC(C)(C)C(=O)C(Oc1ccc(Cl)cc1)n1cncn1` (stereo not shown) [TRIADIMEFON], the Offscreen_18hr is reported as 0.0626, the Offscreen_24hr was 0.0684 and the Offscreen_42hr stood at 0.2136.
The corresponding values for `CSc1nc2cc(Cl)c(Oc3cccc(Cl)c3Cl)cc2[nH]1` [TRICLABENDAZOLE] are 0.3546, 0.5896 and 0.8341.
Regarding `CO[C@H]1C[C@@H]2CC[C@@H](C)[C@@](O)(O2)C(=O)C(=O)N2CCCC[C@H]2C(=O)O[C@H]([C@H](C)C[C@@H]2CC[C@@H](OC(=O)C(C)(CO)CO)[C@H](OC)C2)CC(=O)[C@H](C)/C=C(\C)[C@@H](O)[C@@H](OC)C(=O)[C@H](C)C[C@H](C)/C=C/C=C/C=C/1C` [Temsirolimus], the Offscreen_18hr turned out to be 0.0544, the Offscreen_24hr stood at 0.0562 and the Offscreen_42hr stood at 0.0968.
Turning to `CN(C/C=C/C#CC(C)(C)C)Cc1cccc2ccccc12` [Terbinafine hydrochloride], the Offscreen_18hr is reported as 0.3316, the Offscreen_24hr is 0.5468 and the Offscreen_42hr is given as 0.9146.
On the same counts, the results for `CCN(CC)C(=S)SSC(=S)N(CC)CC` [Tetraethylthiuram disulfide] are 0.0416, 0.0418 and 0.0415.
Consider `Oc1cc(Cl)ccc1Oc1ccc(Cl)cc1Cl` [Triclosan], for which the Offscreen_18hr was 0.1779, the Offscreen_24hr was 0.3017 and the Offscreen_42hr is 0.8343.
On the same counts, the results for `COc1ccc2c(c1)CC[C@@H]1[C@@H]2CC[C@]2(C)[C@H](NCCCCCCN3C(=O)C=CC3=O)CC[C@@H]12` [U 73122] are 0.5917, 0.8296 and 0.9704.
On the same counts, the results for `CCC[C@H](NC(=O)/C(C#N)=C/c1cccc(Br)n1)c1ccccc1` [WP1130] are 0.6544, 0.8363 and 0.9253.
Take `CC(C)N(CCC(=O)c1ccc2ccccc2c1)Cc1ccccc1.Cl` [ZM 39923 HCl]: the Offscreen_18hr is recorded as 0.0402, the Offscreen_24hr is recorded as 0.0403 and the Offscreen_42hr worked out at 0.0401.
Take `O=c1[nH]c(=O)c2ccccc2o1` [pu-sc-0002 H19]: the 18 hours is 0.7281, the 24 hours amounted to 0.8523 and the 48 hours was 0.8964.
Turning to Erythrosine, the OffScreen_percentage was found to be 100.818 percentage, the Offscreen_18hr was determined as 0.8136, the Offscreen_24hr is 0.8985 and the Offscreen_42hr turned out to be 0.9466. Also, the Read_percentage was 100.818 percentage.
For OXYCLOZANIDE, the Offscreen_18hr was 0.5071, the Offscreen_24hr is recorded as 0.6783 and the Offscreen_42hr is 0.7815.

The data set is the same for the next values; noted with them: parent strain growth reading, 18 hr.
For JAK3 Inhibitor VI, the Offscreen_18hr came to 0.0531.

The same data set, now with this note: parent strain growth reading, 24 hr.
On to JAK3 Inhibitor VI, for which the Offscreen_24hr came out at 0.0592.

The same data set, now with this note: parent strain growth reading, 42 hr.
For the compound JAK3 Inhibitor VI, the Offscreen_42hr is listed as 0.0892.

The next data set concerns parent strain (SAWy518). Nature of the data set: microbe, parasite or virus in culture. The arrangement: species or system Saccharomyces cerevisiae SAWy518; Off-target growth counter-screen, OD600 as per cent of untreated wells, strain lacking MCT1. The note with it: 18.5 h; sheet Primary Screen - final;; off-target growth of parent strain, about 18 h. The method, then: Cells were grown for 18 hours prior to OD measurement. Fill represents manual compound grouping based on compound class or target. OD600 is reported in Tecan units. […] The drug library used in this study for the initial screen and rescreen was provided by the Small Molecule Screening Center at Princeton University, through a collaboration with Dr. Hahn Kim. […] Follow-up analysis (IC50 determinations) on library compounds was performed using compounds purchased from outside sources. […] Stocks were then diluted 100-fold into media containing 0.01 OD600 inoculation of yeast, to achieve the final concentrations listed. Where compounds were added manually (for example 10 μM AZD3965 addition) stock concentrations were diluted by a factor of 100-fold regardless of scale, resulting in a final concentration of 1% v/v DMSO which is well tolerated by yeast.
For the compound `CCCc1c(-c2ccc(O)cc2)nn(-c2ccc(O)cc2)c1-c1ccc(O)cc1`, the viability at 10 µM is 99%.
On to `O=C1CC(c2ccc(O)cc2)Oc2ccccc21` (stereo not shown), for which the viability at 10 µM is 90.8%.
Still for that read-out and setting: with `O=C(/C=C/c1ccc(O)cc1)c1ccccc1` [4-hydroxychalcone] the figure was 104%; with `N#Cc1c(O)c2c(-c3ccc(-c4ccccc4O)cc3)csc2[nH]c1=O` [A-769662], 102%; with `CCOC(=O)[C@H](C)C[C@@H](Cc1ccc(-c2ccccc2)cc1)NC(=O)CCC(=O)O` [AHU377], 105%.
As to `COc1ccc([C@@H](C)C(=O)c2ccc(O)cc2O)cc1` [Angolesin], the viability at 10 µM came to 95.7%.
For the compound `O=c1cc(-c2ccc(O)cc2)oc2cc(O)cc(O)c12` [Apigenin], the viability at 10 µM worked out at 96.1%.
Still for that read-out and setting: next, `C=CC(C1=CC(=O)C(OC)=CC1=O)c1ccc(O)cc1` (stereo not shown) [DALBERGIONE, 4-METHOXY-4'-HYDROXY-]: 102%.
In the case of `O=C(O)Cc1ccccc1Nc1c(Cl)cccc1Cl` [Diclofenac], the viability at 10 µM was 101%.
Consider `O=C(O)c1ccccc1-c1c2cc(I)c(=O)c(I)c-2oc2c(I)c(O)c(I)cc12` [Erythrosine], for which the viability at 10 µM came to 101%.
For the compound `CC(Cc1ccc(O)c(O)c1)C(C)Cc1ccc(O)c(O)c1` (stereo not shown) [Nordihydroguaiaretic_acid], the viability at 10 µM stood at 101%.
Same read-out and setting: with `CN1C(C(=O)Nc2ccccn2)=C(O)c2ccccc2S1(=O)=O` [Piroxicam] the figure was 95.2%; with `O=c1c(O)c(-c2ccc(O)c(O)c2)oc2cc(O)cc(O)c12` [Quercetin], 96.1%.
With `CS(=O)(=O)c1ccc(C2=C(c3ccccc3)C(=O)OC2)cc1` [Rofecoxib], the viability at 10 µM stood at 104%.
In the case of `CC1=C(CC(=O)O)c2cc(F)ccc2/C1=C\c1ccc([S+](C)[O-])cc1` (stereo not shown) [Sulindac], the viability at 10 µM is 103%.
For the compound `COCCN1C2=C(C(=O)c3ccccc3C2=O)N(Cc2cnccn2)C1C` (stereo not shown) [YM155], the viability at 10 µM stood at 104%.

One may read the viability as a read-out of living cells in per cent, often relative to untreated cells.
